Measurements from US20100119595A1, “Monounsaturated fatty acids and perhydrocyclopentanophenanthrene nucleus combination molecules, and their precursors, and the use of all of these as weight-loss agents” (priority 2001, published 2010).
Entries after “also recorded” stand apart in the source; their conditions may differ.

Tests used:
[1] = Human study of 2 hydroxy estrone eicosenoate (Example 8); format: in vivo; details: humans, oral capsule, 0.75 or 0.375 micromoles/kg
Description: In this random, double-blind, placebo controlled study, subjects are selected to one of three groups and take a capsule orally every morning containing one of the following: a) sunflower oil (placebo), b) 2 hydroxy estrone eicosenoate dissolved in sunflower oil at a dose of 0.75 micromoles/kg, or c) 2 hydroxy estrone eicosenoate dissolved in sunflower oil at a dose of 0.375 micromoles/kg. […]
Different tests are performed at least five different times during each study, namely at the screening of potential participants, at the beginning of the study, weekly during the trials, at the end of the first 4 week period and at the end of the second 4 week treatment period. • 1) SCREENING: Subjects are screened to exclude hypothyroidism, pregnancy, and heart disease. […] Subjects selected to participate in the studies have the following initial measurements: WEIGHT, WAIST to HIP RATIO, HEIGHT, BMI (calculated), BODY FAT % & TOTAL BODY FAT (via bioelectrical impedance method). […]
Ad libitum diets are followed, and food intake and appetite are assessed daily by the patient with an appropriate questionnaire and booklet. […]

[2] = Rat study of 2 hydroxyestrone eicosenoate (Example 9); format: in vivo, Osborne Mendle rats; details: rats, oral gavage 21 days, 10, 5, 3.33 or 2.5 micromoles/kg
Description: Osborne Mendle rats are selected as the study subjects due to their propensity to gain fat to when fed a high fat diet. An initial measurement of body weight is performed on each rat.
The rats are placed individually in appropriate cages and allowed an ad libitum diet of standard rat chow and water for a 10-day period. During this 10-day period the rats are gavaged daily with 0.1 cc volume of sunflower oil to allow them to become comfortable with being handled and receiving the gavage tube (it takes about 10 days for this acclimation to occur, and is important so that the animals are not stressed by the gavage).
Daily measurements include the following: • 1. Weight • 2. Weight of food consumed • 3. Spillage • 4. Water consumed, both volume and weight
The rats remain confined and are denied out-of-cage activity or exercise for the duration of the experiment other than normal daily activity confined to the cage. This initial 10 day period establishes a pattern and average of weight gain, to acclimate the animals to the gavage procedure, and determine the average food and water consumption for each rat. […]
At the end of the study, rats are anesthetized then sacrificed via guillotine. […] Weight of the uterus is determined. […]

[3] = test system: MCF-7 human breast cancer cell line; assay: MCF-7 human breast cancer cell line test; format: cell-based
Description: The practical use of any compound given to humans for the treatment of obesity require, of course, that the compound not only be effective, but able to pass the FDA requirements and be approved as a drug suitable for humans. […] One test used to determine reactivity with human breast cancer cells is the “MCF-7 human breast cancer cell line test”. The lower the concentration of drug required to produce agonist activity, the more potential there is for problems with cancer causing &/or promotion in humans A comfortable level in the pharmaceutical industry would be a reactivity in the micromolar range. In the case of oleyl estrone, agonist activity begins at […]; with estrone eicosenoate, agonist activity begins at a ten times greater concentration of 1.0 nanomolar. This low concentration of agonist activity mitigates the possibility that these compounds would gain FDA approval for either drug.

[4] = Stability of the compound
[5] = cited from earlier work
[6] = Rabbit 10-day oral study: body weight and food consumed (Example 1)
Description: During the first 3 weeks, rabbits were only weighed and allowed to eat. On the fourth week, all rabbits were given 0.05 cc dose of peanut oil.
Five New Zealand white rabbits were obtained and caged in their natural environment (outside) and fed a cafeteria, ad libitum diet of rabbit chow. […] The appropriate weights of OE or EE were diluted in peanut oil to provide concentrations as follows: 1) OE, 2 mg/0.05 cc; 2) EE, 1 mg/0.05 cc; 3) 0.33 mg/0.05 cc; 4) EE, 0.1mg/0.05 cc, 5) EE, 0.03 mg/0.05 cc
For the initial three weeks, the rabbits were given no medicine or oil. Body weight and food consumed were measured daily; establishing a daily average for food consumed and weight change.
Rabbits received the assigned dose for 10 consecutive days. Rabbit weight (kg) and food eaten (grams) were determined daily.

[7] = test system: human T47D breast cells; details: ER-CALUX; cited from earlier work

With `CCCCCCCC/C=C\CCCCCCCCCC(=O)Oc1cc2c(cc1O)[C@H]1CC[C@]3(C)C(=O)CC[C@H]3[C@@H]1CC2` [2-hydroxy estrone eicosenoate] the appetite [1] was “reduces appetite”, the “weight loss, loss of body fat, and/or decrease of body fat%” value [1] was “produces weight loss” and the “body weight &/or body fat” value [2] was “reduction of body weight &/or body fat”. The food consumption [2] was “reduction in food consumption”.

In the case of `CCCCCCCC/C=C\CCCCCCCCCC(=O)Oc1cc2c(cc1Br)[C@H]1CC[C@]3(C)C(=O)CC[C@H]3[C@@H]1CC2` (relative stereo) [bromo compound, 2-bromoestrone ester of cis-11-eicosenoic acid], the “reactivity in MCF-7 test” value ([3]; compared with oleoyl estrone) is reported as “only as reactive as oleoyl estrone” and the stability [4] is reported as “stable”.

For `CCCCCCCCCCCCCCCCCC(=O)Oc1ccc2c(c1)CCC1C2CCC2(C)C(=O)CCC12` (stereo not drawn) [stearoyl estrone], the “efficacy compared with oleoyl estrone” value ([5]; Life Sci, 1998: 62 (15): 1349-59) is listed as “less effective”.

For `CCCCCCCC/C=C\CCCCCCCC(=O)Oc1ccc2c(c1)CC[C@@H]1[C@@H]2CC[C@]2(C)C(=O)CC[C@@H]12` [OE, Oleoyl-estrone, reference compound], the “concentration at which agonist activity begins” value ([3]; MCF-7 human breast cancer cells) is listed as 0.9 nM, the lipid reserves ([5]; Zucker lean rats, one study) is listed as “lost virtually all their lipid reserves” and the weight loss ([5]; variety of rats, i.v. or oral, published articles) is listed as “rapid and sustained weight loss”. For the same compound, the “FINAL WT.” value ([6]; OE 2 mg/d oral in peanut oil, 10 days, one rabbit, initial wt 3.70 kg) was 3.60 kg, the “WT. Δ w/ Rx 10 days” value ([6]; OE 2 mg/d oral, 10 days, pre-Rx 10 day avg. +0.121, control +0.14) was −0.10 kg and the “FOOD/DAY AVG. w/ Rx” value ([6]; OE 2 mg/d oral, 10 days, pre-Rx avg 160.55) was 93.8 grams. The “side effect, behaviour” value ([6]; OE 2 mg/d oral, after one week of therapy, rabbit) was “very agitated, mean and aggressive; also recorded: irritability and aggressive behavior”.

In the case of `C[C@]12CC[C@@H]3c4cc(O)c(O)cc4CC[C@H]3[C@@H]1CCC2=O` [2 hydroxy estrone], the “times less active than estrone” value [7] is listed as 10,000 times.
